The source of these data is PubChem BioAssay (NCI).

Common to all, as to assay: growth of human tumour cells (NCI), 48 h
Assay [1] relates to MDA-MB-435.
For assay [2], the system named is EKVX NSCLC.
Assay [3] deals with UACC-257 melanoma.
Assay [4] relates to HS 578T breast.
Assay [5] relates to SF-295 CNS.
The subject of assay [6] is RPMI-8226 leukemia.
Assay [7] has as its system TK-10 renal.
The subject of assay [8] is SNB-19 CNS.
The test system of assay [9] is PC-3 prostate.
Assay [10] has as its system K-562 leukemia.
The test system of assay [11] is ACHN renal.
Assay [12] concerns KM12 colon.
The test system of assay [13] is SK-MEL-5 melanoma.
Assay [14] has as its system SK-MEL-2 melanoma.
Assay [15] concerns OVCAR-8 ovarian.

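Following 48 hours of exposure in 96-well plates, responses at five concentrations were used to interpolate endpoints linearly. TGI denotes the concentration required for complete inhibition of growth.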

Consider `CCN1C(=O)C(C)S/C1=N\NC(=O)CSc1nc2ccccc2c(=O)n1CC` (stereo not given), for which the TGI in assay [1], in assay [2], in [3], in assay [4], in assay [5] and in assay [6] was over 100 µM in each case. The TGI in [7], in [8], in [9], in [10], in assay [11] and in [12] was over 100 µM each time. Also, the TGI in assay [13], in assay [14] and in assay [15] was over 100 µM each time.
As to `CCOC(=O)C(C)NC(=O)C(C)NC(=O)C(C)NC(=O)C(C)NC(=O)C(C)NC(=O)OCc1ccccc1` (stereo not given), the TGI in assay [1], in assay [2], in assay [3], in assay [4], in [5] and in assay [6] was over 100 µM each time. In addition, the TGI in assay [7], in assay [8], in [9], in [10], in [11] and in assay [12] was over 100 µM in each case. Also, the TGI in assay [13], in assay [14] and in [15] was over 100 µM in each case.
As to `Cc1oc2c(Cl)cc(O)c(Cl)c2c2cccc1-2`, the TGI in assay [1] was 70 µM; in assay [2], 54.6 µM; in assay [3] it was over 100 µM; in assay [4], over 100 µM; in [5], over 100 µM; in [6], 36.6 µM. Further, the TGI in assay [7] was over 100 µM; in assay [8], over 100 µM; in assay [9], over 100 µM; in [10] it was 47.4 µM; in assay [11] it was over 100 µM; in assay [12] it was 47.4 µM. Moreover, the TGI is 52.1 µM in [13], over 100 µM in assay [14] and 82.6 µM in [15].
For the compound `CCN(CC)c1ccc2cc(C(=O)Nc3ccccc3)c(=N)oc2c1`, the TGI in assay [1], in assay [2], in assay [3], in assay [4], in assay [5] and in assay [6] was over 100 µM each time. For the same compound, the TGI in [7], in assay [8], in [9], in [10], in assay [11] and in assay [12] was over 100 µM in each case. Further, the TGI in assay [13], in assay [14] and in assay [15] was over 100 µM each time.
On to `Cc1nc2c(=O)n(-c3ccccc3)c3ccccc3c2o1`, for which the TGI in [1], in [2], in [3], in assay [4], in [5] and in assay [6] was over 100 µM in each case. Also, the TGI in [7], in assay [8], in [9], in assay [10], in assay [11] and in assay [12] was over 100 µM throughout. Moreover, the TGI in assay [13], in assay [14] and in assay [15] was over 100 µM throughout.
For the compound `O=C1NC(=O)C2(CCCCCC2)N1`, the TGI in [1], in assay [2], in [3], in assay [4], in [5] and in assay [6] was over 100 µM in each case. For the same compound, the TGI in assay [7], in assay [8], in [9], in assay [10], in assay [11] and in [12] was over 100 µM throughout. Moreover, the TGI in assay [13], in [14] and in assay [15] was over 100 µM each time.
As for `COc1cc2cccc(N)c2cc1OC`, the TGI in assay [1], in assay [2], in assay [3], in assay [4], in [5] and in [6] was over 100 µM throughout. For the same compound, the TGI in [7] was over 72 µM; in assay [8], over 100 µM; in assay [9], over 100 µM; in [10], over 100 µM; in assay [11], over 100 µM; in [12], over 100 µM. In addition, the TGI in assay [13], in assay [14] and in assay [15] was over 100 µM each time.
With `COCCCNC(=O)C1=C(C)NC(C)=C(C(=O)NCCCOC)C1`, the TGI in assay [1] is over 100 µM; in [2], 40.5 µM; in assay [3] it was over 100 µM; in [4] it was over 100 µM; in assay [5], over 100 µM; in assay [6], over 100 µM. Moreover, the TGI in [7], in assay [8], in assay [9], in assay [10], in [11] and in [12] was over 100 µM in each case. The TGI in assay [13], in assay [14] and in assay [15] was over 100 µM throughout.
Take `C=C(C)[C@H]1C=C[C@@H](OC(=O)c2cccnc2)[C@@]23CO[C@@](C)([C@H](OC(=O)c4cccnc4)[C@@]4(OC(C)=O)C[C@H](C)[C@H](OCCC)[C@@H]4[C@H]2OC(C)=O)[C@H]13`: the TGI in [1], in assay [2], in assay [3], in [4], in assay [5] and in assay [6] was over 15 µM throughout. The TGI in assay [7], in assay [8], in [9], in assay [10], in assay [11] and in assay [12] was over 15 µM each time. Further, the TGI in assay [13], in assay [14] and in [15] was over 15 µM each time.
